# Data published in patent US20090203708A1, “NOVEL SUBSTITUTED-1-H-QUINAZOLINE-2,4-DIONE DERIVATIVES, PREPARATION METHOD THEREOF AND PHARMACEUTICAL COMPOSITION CONTAINING THE SAME” (Korea Research Institute of Chemical Technology, priority 2006, published 2009).
# Legend:
# D2 (hD2L receptor) = biological target: T1, D2 (hD2L receptor) (Homo sapiens, UniProt P14416); experiment: Radioligand binding assay, dopamine D2; settings: [3H] spiperone 1 nM; read-out: Binding affinity IC50 D2
# T1 construct: purchased BioSignal Packard Inc., Montreal, Canada
# T1 sequence (P14416 whole entry): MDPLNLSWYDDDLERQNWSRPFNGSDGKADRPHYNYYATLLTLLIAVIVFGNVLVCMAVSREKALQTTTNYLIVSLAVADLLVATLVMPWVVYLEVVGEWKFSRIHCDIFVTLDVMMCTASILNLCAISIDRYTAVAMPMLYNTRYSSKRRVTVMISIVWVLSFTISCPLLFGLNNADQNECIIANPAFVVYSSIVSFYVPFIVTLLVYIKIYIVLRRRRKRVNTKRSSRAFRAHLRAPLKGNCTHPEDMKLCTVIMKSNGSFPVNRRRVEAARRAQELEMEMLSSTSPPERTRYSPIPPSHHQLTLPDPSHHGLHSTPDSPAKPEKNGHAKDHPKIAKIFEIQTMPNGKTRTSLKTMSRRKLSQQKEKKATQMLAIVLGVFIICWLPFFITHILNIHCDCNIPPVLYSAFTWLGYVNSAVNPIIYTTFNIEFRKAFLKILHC
# Description: (§1) Radioligand binding assays for dopamine receptor family (D1, D2 and D3) were performed according to the protocols provided by the manufacturer of receptor membranes (BioSignal Packard Inc., Montreal, Canada). The radioligands used were [^3H] spiperone (for hD2L and hD3 receptors, 1 nM) and [^3H] YM-09151-2 (hD4.2 receptor, 0.06 nM). Briefly, the buffer used in the D1, D2 and D3 receptor binding assay was 50 mM Tris-HCl (pH 7.4), containing 10 mM MgCl2 and 1 mM EDTA, or 50 mM Tris-HCl (pH 7.4), containing 5 mM MgCl2, 5 mM EDTA, 5 mM KCl, 1.5 mM CaCl2 and 120 mM NaCl. For [^3H] YM-09151-2 receptor binding assays, 50 mM Tris-HCl (pH 7.4) containing 5 mM MgCl2, 5 mM EDTA, 5 mM KCl and 1.5 mM CaCl2, was used as a buffer. Nonspecific binding was determined with haloperidol (10 μM) for D2 and D3 and clozapine (10 μM) for D4 receptors.
# (§2) Competition binding studies were carried out with 7-8 concentrations of the test compound run in duplicate tubes, and isotherms from three assays were calculated by computerized nonlinear regression analysis (GraphPad Prism Program, San Diego, […]) to yield median inhibitory concentration (IC50) values.
# D4 (hD4.2 receptor) = biological target: T2, D4 (hD4.2 receptor) (Homo sapiens, UniProt P21917, DEL265-296); experiment: Radioligand binding assay, dopamine D4; settings: [3H] YM-09151-2 0.06 nM; read-out: Binding affinity IC50 D4
# T2 construct: purchased BioSignal Packard Inc., Montreal, Canada
# T2 sequence (P21917 with tags, fused parts or gaps DEL265-296): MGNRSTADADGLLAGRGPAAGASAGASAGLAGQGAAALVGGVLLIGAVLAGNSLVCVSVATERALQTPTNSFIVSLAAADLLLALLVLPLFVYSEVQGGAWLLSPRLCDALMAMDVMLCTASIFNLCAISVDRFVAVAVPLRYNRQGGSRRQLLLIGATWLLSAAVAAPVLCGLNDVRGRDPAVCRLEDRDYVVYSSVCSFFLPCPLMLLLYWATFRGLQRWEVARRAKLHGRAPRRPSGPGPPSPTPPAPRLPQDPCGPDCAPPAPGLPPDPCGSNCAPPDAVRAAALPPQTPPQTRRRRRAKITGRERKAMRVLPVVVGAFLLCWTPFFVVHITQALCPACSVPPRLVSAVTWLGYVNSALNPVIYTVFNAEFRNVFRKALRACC
# Description: as §1, §2
# [1] = biological target: 5-HT7 (human recombinant receptor, CHO-K1) (Homo sapiens, UniProt P34969); experiment: Radioligand binding assay, 5-HT7
# 5-HT7 (human recombinant receptor, CHO-K1), sequence (P34969 whole entry): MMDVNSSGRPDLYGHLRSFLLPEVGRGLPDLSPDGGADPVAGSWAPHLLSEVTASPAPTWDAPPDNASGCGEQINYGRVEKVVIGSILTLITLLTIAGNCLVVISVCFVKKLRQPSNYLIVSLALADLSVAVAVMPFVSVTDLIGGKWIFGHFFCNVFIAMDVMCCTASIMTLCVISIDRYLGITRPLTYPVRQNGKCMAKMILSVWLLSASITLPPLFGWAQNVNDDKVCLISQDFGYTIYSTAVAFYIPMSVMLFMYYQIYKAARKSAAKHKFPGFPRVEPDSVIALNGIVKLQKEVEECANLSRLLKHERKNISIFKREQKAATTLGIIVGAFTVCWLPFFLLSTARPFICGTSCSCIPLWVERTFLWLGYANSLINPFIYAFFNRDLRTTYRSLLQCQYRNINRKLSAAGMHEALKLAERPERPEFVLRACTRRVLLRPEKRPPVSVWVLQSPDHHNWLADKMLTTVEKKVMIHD
# [2] = biological target: T3, 5-HT1a (human recombinant receptor, CHO-K1) (Homo sapiens, UniProt P08908); experiment: Radioligand binding assay, 5-HT1a
# T3 sequence (P08908 1-422): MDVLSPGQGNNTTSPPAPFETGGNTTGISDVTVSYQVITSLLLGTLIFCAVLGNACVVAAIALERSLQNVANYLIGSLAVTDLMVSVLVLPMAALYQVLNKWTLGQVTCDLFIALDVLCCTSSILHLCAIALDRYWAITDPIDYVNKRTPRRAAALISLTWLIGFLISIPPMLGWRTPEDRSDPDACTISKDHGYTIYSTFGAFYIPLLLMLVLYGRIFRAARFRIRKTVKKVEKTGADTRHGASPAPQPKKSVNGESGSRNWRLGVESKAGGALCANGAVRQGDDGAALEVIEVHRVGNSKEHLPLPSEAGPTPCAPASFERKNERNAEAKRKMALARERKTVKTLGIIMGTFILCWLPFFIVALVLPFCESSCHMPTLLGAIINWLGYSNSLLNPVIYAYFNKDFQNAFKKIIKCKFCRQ
# [3] = biological target: 5-HT2a (human recombinant receptor, CHO-K1) (Homo sapiens, UniProt P28223); experiment: Radioligand binding assay, 5-HT2a
# 5-HT2a (human recombinant receptor, CHO-K1), sequence (P28223 whole entry): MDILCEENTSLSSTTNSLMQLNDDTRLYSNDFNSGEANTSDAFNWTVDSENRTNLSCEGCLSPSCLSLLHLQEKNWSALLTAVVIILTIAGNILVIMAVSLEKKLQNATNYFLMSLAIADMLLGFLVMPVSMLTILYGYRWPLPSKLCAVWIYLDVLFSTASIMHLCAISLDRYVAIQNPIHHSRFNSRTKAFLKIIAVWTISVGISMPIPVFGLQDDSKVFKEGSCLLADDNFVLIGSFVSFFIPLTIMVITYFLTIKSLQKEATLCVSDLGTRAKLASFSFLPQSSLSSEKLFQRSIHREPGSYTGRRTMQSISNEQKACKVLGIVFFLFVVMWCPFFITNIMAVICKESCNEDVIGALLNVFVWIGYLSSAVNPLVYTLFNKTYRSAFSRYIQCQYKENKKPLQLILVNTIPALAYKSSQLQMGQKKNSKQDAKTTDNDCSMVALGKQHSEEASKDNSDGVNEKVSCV
# [4] = biological target: T4, 5-HT2c (human recombinant receptor, CHO-K1) (Homo sapiens, UniProt P28335); experiment: Radioligand binding assay, 5-HT2c
# T4 sequence (P28335 33-458): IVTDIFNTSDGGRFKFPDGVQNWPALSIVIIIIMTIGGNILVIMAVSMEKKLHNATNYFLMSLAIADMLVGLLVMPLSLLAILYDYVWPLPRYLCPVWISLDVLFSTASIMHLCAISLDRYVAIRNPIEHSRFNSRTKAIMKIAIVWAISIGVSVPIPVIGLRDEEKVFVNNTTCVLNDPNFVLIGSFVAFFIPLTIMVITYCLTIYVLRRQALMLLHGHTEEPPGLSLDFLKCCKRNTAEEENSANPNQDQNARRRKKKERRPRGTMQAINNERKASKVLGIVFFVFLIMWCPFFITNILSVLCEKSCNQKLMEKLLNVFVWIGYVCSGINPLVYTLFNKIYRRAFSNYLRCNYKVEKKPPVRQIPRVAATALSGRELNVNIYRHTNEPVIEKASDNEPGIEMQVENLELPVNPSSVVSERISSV
# D3 (hD3 receptor) = D3 (hD3 receptor) (Homo sapiens, UniProt P35462); experiment: Radioligand binding assay, dopamine D3
# D3 (hD3 receptor), sequence (P35462 whole entry): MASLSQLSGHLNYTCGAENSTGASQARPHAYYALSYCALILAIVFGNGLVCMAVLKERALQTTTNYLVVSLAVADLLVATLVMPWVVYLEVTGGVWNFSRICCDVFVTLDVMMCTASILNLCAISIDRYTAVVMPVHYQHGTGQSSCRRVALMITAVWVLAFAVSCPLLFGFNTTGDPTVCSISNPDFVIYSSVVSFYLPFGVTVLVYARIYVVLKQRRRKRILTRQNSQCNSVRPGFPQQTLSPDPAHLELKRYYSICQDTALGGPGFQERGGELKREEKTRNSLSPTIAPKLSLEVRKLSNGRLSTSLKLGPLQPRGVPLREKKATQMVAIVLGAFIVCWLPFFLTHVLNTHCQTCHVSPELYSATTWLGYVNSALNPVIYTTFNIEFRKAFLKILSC
# [5] = biological target: human serotonin 5-HT6 receptor (Homo sapiens, UniProt P50406); experiment: [3H]LSD binding assay for cloned 5-HT6 receptors
# human serotonin 5-HT6 receptor, sequence (P50406 whole entry): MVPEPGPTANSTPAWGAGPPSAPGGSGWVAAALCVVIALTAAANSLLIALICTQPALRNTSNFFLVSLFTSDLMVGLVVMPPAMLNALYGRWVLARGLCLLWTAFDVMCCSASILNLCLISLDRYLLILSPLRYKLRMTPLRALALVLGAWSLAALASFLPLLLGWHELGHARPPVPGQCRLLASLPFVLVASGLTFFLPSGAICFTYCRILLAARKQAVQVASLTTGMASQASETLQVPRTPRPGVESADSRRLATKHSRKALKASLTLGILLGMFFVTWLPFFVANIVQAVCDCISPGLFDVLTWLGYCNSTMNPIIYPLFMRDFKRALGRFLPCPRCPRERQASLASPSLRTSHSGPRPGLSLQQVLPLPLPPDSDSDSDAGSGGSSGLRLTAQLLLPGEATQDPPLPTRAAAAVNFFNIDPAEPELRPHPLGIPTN
SMILES,IC50 (D2 (hD2L receptor)),IC50 (D4 (hD4.2 receptor)),melting point,IC50 [1],IC50 [2],IC50 [3],IC50 [4],IC50 (D3 (hD3 receptor)),IC50 [5]
"CN1CCN(c2cc(Cl)cc3c2c(=O)n(Cc2cccc(I)c2)c(=O)n3Cc2ccccc2)CC1 [Example 20, 1-benzyl-7-chloro-3-(3-iodo-benzyl)-5-(4-methyl-piperazin-1-yl)-1H-quinazoline-2,4-dione]",> 10000 nM,> 10000 nM,182 to 184 °C,1920 nM,3530 nM,912 nM,1050 nM,615 nM,1.6 nM
"Cc1ccccc1Cn1c(=O)c2c(N3CCN(C)CC3)cc(Cl)cc2n(Cc2ccccc2)c1=O [Example 22, 1-benzyl-7-chloro-3-(2-methyl-benzyl)-5-(4-methyl-piperazin-1-yl)-1H-quinazoline-2,4-dione]",> 10000 nM,> 10000 nM,92 to 95 °C,3970 nM,5780 nM,663 nM,216 nM,1540 nM,2.1 nM
"Cc1ccc(Cn2c(=O)c3c(N4CCN(C)CC4)cc(Cl)cc3n(Cc3ccccc3)c2=O)cc1 [Example 24, 1-benzyl-7-chloro-3-(4-methyl-benzyl)-5-(4-methyl-piperazin-1-yl)-1H-quinazoline-2,4-dione]",> 10000 nM,> 10000 nM,92 to 97 °C,> 10000 nM,3210 nM,733 nM,599 nM,435 nM,2 nM
"COc1ccccc1Cn1c(=O)c2c(N3CCN(C)CC3)cc(Cl)cc2n(Cc2ccccc2)c1=O [Example 25, 1-benzyl-7-chloro-3-(2-methoxy-benzyl)-5-(4-methyl-piperazin-1-yl)-1H-quinazoline-2,4-dione]",> 10000 nM,> 10000 nM,91 to 96 °C,> 10000 nM,7080 nM,916 nM,925 nM,1330 nM,1.9 nM
"CN1CCN(c2cc(Cl)cc3c2c(=O)n(Cc2ccccc2[N+](=O)[O-])c(=O)n3Cc2ccccc2)CC1 [Example 31, 1-benzyl-7-chloro-5-(4-methyl-piperazin-1-yl)-3-(2-nitro-benzyl)-1H-quinazoline-2,4-dione]",> 10000 nM,> 10000 nM,164 to 169 °C,> 10000 nM,2240 nM,49 nM,952 nM,1240 nM,1.4 nM
"CN1CCN(c2cc(Cl)cc3c2c(=O)n(Cc2cccc([N+](=O)[O-])c2)c(=O)n3Cc2ccccc2)CC1 [Example 32, 1-benzyl-7-chloro-5-(4-methyl-piperazin-1-yl)-3-(3-nitro-benzyl)-1H-quinazoline-2,4-dione]",> 10000 nM,> 10000 nM,200 to 205 °C,> 10000 nM,3800 nM,1800 nM,1560 nM,276 nM,0.6 nM
"Cc1cc(C)cc(CCCn2c(=O)c3c(N4CCN(C)CC4)cc(Cl)cc3n(Cc3ccccc3)c2=O)c1 [Example 44, 1-benzyl-7-chloro-3-[3-(3,5-dimethyl-phenyl)-propyl]-5-(4-methyl-piperazin-1-yl)-1H-quinazoline-2,4-dione]",987 nM,> 10000 nM,67 to 73 °C,> 10000 nM,2780 nM,197 nM,2650 nM,73 nM,2 nM
"Cc1ccc(Cn2c(=O)c3c(N4CCN(C)CC4)cc(Cl)cc3n(Cc3ccccc3)c2=O)o1 [Example 47, 1-benzyl-7-chloro-3-(5-methyl-furan-2-ylmethyl)-5-(4-methyl-piperazin-1-yl)-1H-quinazoline-2,4-dione]",> 10000 nM,> 10000 nM,132 to 136 °C,8740 nM,1140 nM,830 nM,465 nM,2810 nM,1.4 nM
"CN1CCN(c2cc(Br)cc3c2c(=O)n(Cc2ccccc2)c(=O)n3Cc2ccccc2)CC1 [Example 54, 1,3-dibenzyl-7-bromo-5-(4-methyl-piperazin-1-yl)-1H-quinazoline-2,4-dione]",> 10000 nM,> 10000 nM,80 to 84 °C,> 10000 nM,5010 nM,376 nM,646 nM,554 nM,2.3 nM
"CN1CCN(c2cc(Br)cc3c2c(=O)n(Cc2ccccc2Cl)c(=O)n3Cc2ccccc2)CC1 [Example 55, 1-benzyl-7-bromo-3-(2-chloro-benzyl)-5-(4-methyl-piperazin-1-yl)-1H-quinazoline-2,4-dione]",> 10000 nM,> 10000 nM,104 to 108 °C,5140 nM,2720 nM,130 nM,252 nM,1440 nM,1.5 nM
